The values that follow come from ChEMBL document CHEMBL4602695, “Discovery and SARs of 5-Chloro-N4-phenyl-N2-(pyridin-2-yl)pyrimidine-2,4-diamine Derivatives as Oral Available and Dual CDK 6 and 9 Inhibitors with Potent Antitumor Activity” (J Med Chem, 2020).

The test system of one series is Jurkat. The experiment in a line: Antiproliferative activity against human Jurkat cells assessed as inhibition of cell proliferation measured after 48 hrs by CCK8 assay. The series is classed as functional, cell-based. A general note: Tetrazolium assays rely on reduction of a dye to a coloured formazan, in cell work by metabolically active cells.
Series [1] relates to MDA-MB-231. The series is described as follows: Antitumor activity against human MDA-MB-231 cells xenografted in BALB/c nu/nu mouse assessed as tumor growth inhibition at 45 mg/kg, po administered once daily for 3 weeks and measured at 3 days interval during compound dosing. The series is classed as functional, organism-based.
The subject of series [2] is MDA-MB-231. The series is described as follows: Antiproliferative activity against human MDA-MB-231 cells assessed as inhibition of cell proliferation measured after 48 hrs by CCK8 assay. The series is classed as functional, cell-based. The following applies: for GI50: MDA-MB-231, 48 h.
The test system of a further series is MCF7. The experiment in a line: Antiproliferative activity against human MCF7 cells assessed as inhibition of cell proliferation measured after 48 hrs by CCK8 assay. The series is classed as functional, cell-based. The following applies: for GI50: MCF7, 48 h.
Series [3] has as its system MDA-MB-231. The experiment in a line: Induction of apoptosis in human MDA-MB-231 cells assessed as viable cells at 20 uM measured after 48 hrs by Annexin V-FITC/propidium iodide staining based flow cytometry (95.8%). The format is functional. Particulars: MDA-MB-231, 48 h, read-out: Activity. For orientation: Flow cytometry measures light scatter and fluorescence of single cells or particles in a stream.

Series [4] deals with MDA-MB-231. The series is described as follows: Induction of apoptosis in human MDA-MB-231 cells assessed as late apoptotic cells at 20 uM measured after 48 hrs by Annexin V-FITC/propidium iodide staining based flow cytometry (2.78%). The series is classed as functional.
Series [5] has as its system MDA-MB-231. The experiment in a line: Cell cycle arrest in human MDA-MB-231 cells assessed as accumulation at G2/M phase at 20 uM measured after 48 hrs by propidium iodide staining based flow cytometry (reference value: 15.9%). The series is classed as functional.
The test system of series [6] is MDA-MB-231. The series is described as follows: Induction of apoptosis in human MDA-MB-231 cells assessed as early apoptotic cells at 20 uM measured after 48 hrs by Annexin V-FITC/propidium iodide staining based flow cytometry (0.877%). The series is classed as functional.
Series [7] has as its system MDA-MB-231. The experiment in a line: Cell cycle arrest in human MDA-MB-231 cells assessed as accumulation at G0/G1 phase at 20 uM measured after 48 hrs by propidium iodide staining based flow cytometry (reference value: 57.65%). The series is classed as functional.
Series [8] deals with MDA-MB-231. The series is described as follows: Cell cycle arrest in human MDA-MB-231 cells assessed as accumulation at S phase at 20 uM measured after 48 hrs by propidium iodide staining based flow cytometry (reference value: 26.45%). The format is functional.
Series [9] is described as follows: Cytotoxicity against human L02 cells assessed as inhibition of cell proliferation measured after 48 hrs by CCK8 assay. The format is cell-based.
Series [10] concerns MDA-MB-231. The experiment in a line: Induction of apoptosis in human MDA-MB-231 cells assessed as necrotic cells at 20 uM measured after 48 hrs by Annexin V-FITC/propidium iodide staining based flow cytometry (0.498%). The series is classed as functional.
Series [11] deals with CDK9/Cyclin K (Homo sapiens) (UniProt P50750+O75909). The following applies: Sf9.
For the next series, the target named is CDK6/cyclin D3 (Homo sapiens, UniProt Q00534). Details: species or system Sf9.
Chain of CDK6/cyclin D3 (P30281 whole entry): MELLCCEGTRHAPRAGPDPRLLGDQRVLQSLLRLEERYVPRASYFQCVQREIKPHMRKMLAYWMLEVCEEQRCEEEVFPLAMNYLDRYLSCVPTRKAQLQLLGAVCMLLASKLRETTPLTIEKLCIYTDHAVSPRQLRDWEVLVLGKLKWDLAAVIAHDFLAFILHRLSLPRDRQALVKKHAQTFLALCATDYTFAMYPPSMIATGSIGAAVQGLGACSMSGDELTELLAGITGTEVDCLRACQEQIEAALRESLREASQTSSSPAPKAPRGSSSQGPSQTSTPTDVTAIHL
Chain of CDK6/cyclin D3 (Q00534 whole entry): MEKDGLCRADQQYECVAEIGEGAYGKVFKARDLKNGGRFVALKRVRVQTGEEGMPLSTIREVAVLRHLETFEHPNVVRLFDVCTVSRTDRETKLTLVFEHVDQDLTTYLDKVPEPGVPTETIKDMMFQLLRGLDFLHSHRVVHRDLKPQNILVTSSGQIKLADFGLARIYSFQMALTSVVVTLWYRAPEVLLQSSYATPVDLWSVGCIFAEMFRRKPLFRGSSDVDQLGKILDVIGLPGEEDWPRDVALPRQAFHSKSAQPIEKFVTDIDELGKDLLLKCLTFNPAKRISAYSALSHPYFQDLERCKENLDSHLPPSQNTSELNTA
A further series concerns the target CDK2/Cyclin A2 (Homo sapiens, UniProt P24941). On the set-up: species or system Sf9.
For the next series, the target named is CDK9/Cyclin K (Homo sapiens, UniProt P50750). The series is described as follows: biochemical.
Chain of CDK9/Cyclin K (P50750 whole entry): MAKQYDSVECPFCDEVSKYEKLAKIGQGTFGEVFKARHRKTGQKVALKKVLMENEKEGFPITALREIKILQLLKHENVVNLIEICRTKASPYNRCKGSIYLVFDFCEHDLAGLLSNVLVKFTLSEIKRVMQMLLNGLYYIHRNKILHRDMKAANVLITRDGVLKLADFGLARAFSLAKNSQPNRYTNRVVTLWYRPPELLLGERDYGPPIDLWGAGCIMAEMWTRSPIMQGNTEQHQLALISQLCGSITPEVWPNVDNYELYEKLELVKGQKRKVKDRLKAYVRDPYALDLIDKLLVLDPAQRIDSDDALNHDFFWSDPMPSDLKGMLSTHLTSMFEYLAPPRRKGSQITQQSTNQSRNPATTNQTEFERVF
Chain of CDK9/Cyclin K (O75909 whole entry, further chain): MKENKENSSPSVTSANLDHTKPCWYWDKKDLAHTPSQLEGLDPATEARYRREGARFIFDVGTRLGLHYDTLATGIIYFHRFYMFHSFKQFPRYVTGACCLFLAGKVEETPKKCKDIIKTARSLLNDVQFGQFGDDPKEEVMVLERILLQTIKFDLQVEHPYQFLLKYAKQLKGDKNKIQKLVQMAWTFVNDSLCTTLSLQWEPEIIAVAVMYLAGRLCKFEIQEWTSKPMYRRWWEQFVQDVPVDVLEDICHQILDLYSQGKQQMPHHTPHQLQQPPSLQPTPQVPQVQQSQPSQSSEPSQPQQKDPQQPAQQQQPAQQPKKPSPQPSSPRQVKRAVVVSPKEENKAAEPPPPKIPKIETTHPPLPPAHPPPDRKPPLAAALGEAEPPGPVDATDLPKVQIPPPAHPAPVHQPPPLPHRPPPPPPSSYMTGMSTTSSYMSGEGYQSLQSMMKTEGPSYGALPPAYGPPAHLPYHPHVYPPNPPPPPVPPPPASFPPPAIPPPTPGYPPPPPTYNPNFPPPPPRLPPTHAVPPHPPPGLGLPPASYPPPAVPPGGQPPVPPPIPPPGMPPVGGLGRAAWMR
Series [12] can be described thus: Thermodynamic equilibrium solubility in water by HPLC-based shake flask method. The format is physicochemical. Particulars: read-out: Therm_solubility.
Series [13] in a line: Thermodynamic equilibrium solubility in normal saline by HPLC-based shake flask method. The series is classed as physicochemical. The following applies: read-out: Therm_solubility.
Series [14] relates to MDA-MB-231. The experiment in a line: Antitumor activity against human MDA-MB-231 cells xenografted in po dosed BALB/c nu/nu mouse assessed as tumor growth inhibition administered once daily for 3 weeks and measured at 3 days interval during compound dosing. The format is functional, organism-based.
Series [15] concerns MDA-MB-231. The series is described as follows: Effect on CDK9 expression in human MDA-MB-231 cells at 4 to 12 uM measured after 48 hrs by Western blot analysis. The series is classed as functional, cell-based.
Series [16] concerns the target T1, CDK6/cyclin D3 (Homo sapiens) (UniProt P30281+Q00534). The experiment in a line: Binding affinity to recombinant His-tagged CDK6/cyclin D3 (unknown origin) expressed in HEK293T cells assessed as thermal stabilization of protein at 10 uM measured for 3 mins at 57 degC by CETSA. The series is classed as cell-based. Particulars: HEK-293T.
Series [17] has as its target Cyclin-dependent kinase 9 (Homo sapiens) (UniProt P50750). The series is described as follows: Inhibition of CDK9 in human MDA-MB-231 cells assessed as down regulation of cyclin T1 expression at 4 to 12 uM measured after 48 hrs by Western blot analysis. The format is cell-based. On the technique in general: Immunoblotting shows a protein as a band on a membrane.
For series [18], the system named is MDA-MB-231. The series is described as follows: Effect on CDK6 expression in human MDA-MB-231 cells at 4 to 12 uM measured after 48 hrs by Western blot analysis. The format is functional, cell-based.
The target in series [19] is Cyclin-dependent kinase 6 (Homo sapiens) (UniProt Q00534). The experiment in a line: Inhibition of CDK6 in human MDA-MB-231 cells assessed as down regulation of p-Rb expression at 4 to 12 uM measured after 48 hrs by Western blot analysis. The series is classed as cell-based.
Chain of Cyclin-dependent kinase 6 (Homo sapiens) (Q00534 whole entry, the tested form may be a part): as the sequence (Q00534 whole entry) above
Series [20] addresses Cyclin-dependent kinase 9 (Homo sapiens) (UniProt P50750). The series is described as follows: Inhibition of CDK9 in human MDA-MB-231 cells assessed as reduction in c-Myc mRNA level at 4 to 12 uM by trizol reagent based qRT-PCR analysis. The format is cell-based.
The target of series [21] is CDK9/cyclin T1 (Homo sapiens) (UniProt O60563+P50750). The series is described as follows: Binding affinity to recombinant His-tagged CDK9/cyclin T1 (unknown origin) expressed in HEK293T cells assessed as thermal stabilization of protein at 10 uM measured for 3 mins at 57 degC by CETSA. The format is cell-based. Particulars: HEK-293T.
The subject of series [22] is MDA-MB-231. The experiment in a line: Induction of intracellular reactive oxygen species production in human MDA-MB-231 cells measured after 48 hrs by DCFH-DA probe based flow cytometry. The format is functional, cell-based.
In series [23] the test system is MDA-MB-231. The series is described as follows: Induction of apoptosis in human MDA-MB-231 cells xenografted in BALB/c nu/nu mouse assessed as increase in nucleoplasm staining at 22.5 to 90 mg/kg, po administered once daily for 3 weeks measured post-last dose by H and E staining based histopathological analysis. The format is functional, organism-based.
Series [24] has as its target CDK3/Cyclin E (Homo sapiens) (UniProt P24864+Q00526). Particulars: Sf9, 1 uM.
For series [25], the system named is MDA-MB-231. The series is described as follows: Induction of apoptosis in human MDA-MB-231 cells xenografted in BALB/c nu/nu mouse assessed as increase in intracellular space at 22.5 to 90 mg/kg, po administered once daily for 3 weeks measured post-last dose by H and E staining based histopathological analysis. The format is functional, organism-based.
In series [26] the test system is MDA-MB-231. The experiment in a line: Induction of apoptosis in human MDA-MB-231 cells xenografted in BALB/c nu/nu mouse assessed as increase in cytoplasm shrinkage at 22.5 to 90 mg/kg, po administered once daily for 3 weeks measured post-last dose by H and E staining based histopathological analysis. The format is functional, organism-based.
For series [27], the target named is Cyclin-dependent kinase 6 (Homo sapiens) (UniProt Q00534). The experiment in a line: Inhibition of CDK6 in human MDA-MB-231 cells assessed as down regulation of E2F1 expression at 4 to 12 uM measured after 48 hrs by Western blot analysis. The format is cell-based.
For series [28], the target named is Cyclin-C/Cyclin-dependent kinase 19 (Homo sapiens) (UniProt Q9BWU1+P24863). The series is described as follows: Inhibition of recombinant human GST-tagged/His-tagged CDK11 (1 to 502 residues)/cyclinC (1 to 283 residues) expressed in insect cells at 1 uM using PAK1 (148 to 210 residues) as substrate measured after 10 to 60 mins by ADP-glo assay relative to control.

Series [29] concerns the target Cyclin-dependent kinase 9 (Homo sapiens) (UniProt P50750). The experiment in a line: Inhibition of CDK9 in human MDA-MB-231 cells assessed as down regulation of p-Pol II CTD S2 expression at 4 to 12 uM measured after 48 hrs by Western blot analysis. The series is classed as cell-based.
For series [30] the target is unchanged. The series is described as follows: Inhibition of CDK9 in human MDA-MB-231 cells assessed as reduction in Mcl-1 mRNA level at 4 to 12 uM by trizol reagent based qRT-PCR analysis. The format is cell-based.
For series [31], the target named is T1, CDK6/cyclin D3 (Homo sapiens). The following applies: Sf9.

Calls of active or inactive are those of the source. The rule behind the calls is not given here.

The GI50 is the concentration at which growth is held to half of that of the control. Usually inhibition stands for the share of the control response that was lost under treatment. What is called IC50 is the concentration needed to halve the response being measured. A higher IC50 goes with weaker potency in that assay.

Chain of Cyclin-dependent kinase 9 (Homo sapiens) (P50750 whole entry): as the sequence (P50750 whole entry) above
Chain of CDK3/Cyclin E (Homo sapiens) (P24864 whole entry, looked up): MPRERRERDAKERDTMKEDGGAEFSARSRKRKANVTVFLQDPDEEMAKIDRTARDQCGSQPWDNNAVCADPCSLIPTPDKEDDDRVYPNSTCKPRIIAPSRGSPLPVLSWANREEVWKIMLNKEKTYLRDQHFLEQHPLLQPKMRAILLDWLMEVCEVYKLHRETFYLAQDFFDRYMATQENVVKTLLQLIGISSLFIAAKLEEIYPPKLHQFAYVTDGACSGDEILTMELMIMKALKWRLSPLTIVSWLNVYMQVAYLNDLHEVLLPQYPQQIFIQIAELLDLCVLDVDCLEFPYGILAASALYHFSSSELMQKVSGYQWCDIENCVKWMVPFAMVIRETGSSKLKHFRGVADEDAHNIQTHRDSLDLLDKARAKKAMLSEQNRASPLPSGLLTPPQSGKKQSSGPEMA
Chain of CDK3/Cyclin E (Homo sapiens) (Q00526 whole entry, looked up): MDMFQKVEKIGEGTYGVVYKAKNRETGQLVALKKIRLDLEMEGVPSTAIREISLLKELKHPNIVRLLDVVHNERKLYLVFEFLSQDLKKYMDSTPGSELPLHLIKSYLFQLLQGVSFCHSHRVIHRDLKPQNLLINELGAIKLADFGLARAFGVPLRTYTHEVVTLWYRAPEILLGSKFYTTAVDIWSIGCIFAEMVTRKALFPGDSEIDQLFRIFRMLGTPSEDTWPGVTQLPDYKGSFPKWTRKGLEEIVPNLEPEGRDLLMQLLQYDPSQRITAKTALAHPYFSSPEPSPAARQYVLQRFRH

Regarding `CCN1CCN(Cc2ccc(Nc3ncc(F)c(-c4cc(F)c5nc(C)n(C(C)C)c5c4)n3)nc2)CC1` [ABEMACICLIB], the GI50 was 4.63 µM in the series with Jurkat, 3.45 µM in the series with MDA-MB-231 [2] and 4.01 µM in the series with MCF7. Moreover, the TGI entry in the series with MDA-MB-231 [1] is “Active”.
With `CC(=O)c1c(C)c2cnc(Nc3ccc(N4CCNCC4)cn3)nc2n(C2CCCC2)c1=O` [PALBOCICLIB], the GI50 in the series with Jurkat, in the series with MDA-MB-231 [2] and in the series with MCF7 was more than 100 µM in each case. For the same compound, the viability at 20 µM in the series on MDA-MB-231 [3] came to 89%. Besides, the Activity was 5.26% with MDA-MB-231 [4]; 3.12% in the series with MDA-MB-231 [5]; 3.43% in the series on MDA-MB-231 [6]; 91.91% with MDA-MB-231 [7]; 4.98% in the series on MDA-MB-231 [8]; 2.32% in the series on MDA-MB-231 [10]. The GI50 at 48 h in series [9] is more than 100 µM.
For `CN1CCN(c2ccc(Nc3ncc(Cl)c(Nc4cccc(OC(F)(F)F)c4)n3)nc2)CC1`, in [11], the inhibition result was “inactive”.
On to `Cc1ccccc1Nc1nc(Nc2ccc(N3CCN(C)CC3)cn2)ncc1Cl`, for which the GI50 with Jurkat came out at 8.08 µM; in the series with MDA-MB-231 [2], 7.47 µM; with MCF7, 5.21 µM. In addition, the IC50 is 0.0157 to 0.016 µM against CDK6/cyclin D3, more than 10 µM against CDK2/Cyclin A2 and 0.152 µM at CDK9/Cyclin K. Moreover, the Ratio IC50 in the series listed under Homo sapiens amounted to 10. Moreover, the GI50 at 48 h in [9] worked out at 5.98 µM.
Turning to `CN1CCN(c2ccc(Nc3ncc(Cl)c(Nc4ccc(F)cc4)n3)nc2)CC1`, the inhibition entry in series [11] is “inactive”.
As to `CC(=O)Nc1cccc(Nc2nc(Nc3ccc(N4CCN(C)CC4)cn3)ncc2Cl)c1.Cl`, the solubility thermodynamic in series [12] turned out to be 7700 µg/mL; in [13], 3960 µg/mL.
For the compound `CC(=O)Nc1cccc(Nc2nc(Nc3ccc(N4CCN(C)CC4)cn3)ncc2Cl)c1`, in the series with MDA-MB-231 [14], the TGI entry was “Dose-dependent effect”. Further, the outcome in the series on MDA-MB-231 [15] and in the series on MDA-MB-231 [18] was inactive. Further, the result (in series [16]; in series [21]; in the series with MDA-MB-231 [23]; with MDA-MB-231 [25]; with MDA-MB-231 [26]) was Active. Moreover, the inhibition result in series [17], in [19], in series [20], in series [27], in series [29] and in series [30] was “Active” throughout. Moreover, the Activity entry with MDA-MB-231 [22] was “Dose-dependent effect”. In addition, the inhibition in series [24] and in [28] was less than 6.6% each time.
Regarding `CN1CCN(c2ccc(Nc3ncc(Cl)c(Nc4ccccc4F)n3)nc2)CC1`, the inhibition result with Jurkat, with MDA-MB-231 [2] and in the series with MCF7 was “Active” each time. In addition, the inhibition result in [11] and in series [31] was “inactive” throughout.
